Data from the NIST ThermoML archive (doi:10.1016/j.jct.2017.06.002).
Numbers after ± are expanded uncertainties.

Test: xn = mol fraction of the nth substance listed
Conditions: 100 kPa, Liquid; for viscosity: Concentric cylinders viscometry; for mass density: Vibrating tube method

COCOCOCOC [2,4,6,8-tetraoxanonane] + COCOCOC
Conditions	mass density [kg/m3]	viscosity [mPa·s]
288.15 K, x2 = 0	1037.5 ± 2	1.259 ± 0.051
288.15 K, x2 = 0.06	1034.7 ± 2.3	1.278 ± 0.051
288.15 K, x2 = 0.12	1031.3 ± 2.2	1.281 ± 0.051
288.15 K, x2 = 0.18	1029.5 ± 2.1	1.273 ± 0.051
288.15 K, x2 = 0.24	1027.1 ± 2.1	1.261 ± 0.051
288.15 K, x2 = 0.35	1024.2 ± 2.1	1.228 ± 0.051
288.15 K, x2 = 0.45	1021.1 ± 2.1	1.185 ± 0.051
288.15 K, x2 = 0.55	1018.1 ± 2.1	1.142 ± 0.051
288.15 K, x2 = 0.65	1014.3 ± 2.2	1.096 ± 0.051
288.15 K, x2 = 0.74	1010.1 ± 2.2	1.051 ± 0.052
288.15 K, x2 = 0.83	1006.2 ± 2.2	1.001 ± 0.051
288.15 K, x2 = 0.92	1002.3 ± 2.2	0.9612 ± 0.051
293.15 K, x2 = 0	1030.2 ± 2	1.166 ± 0.051
293.15 K, x2 = 0.06	1028.4 ± 2.1	1.174 ± 0.051
293.15 K, x2 = 0.12	1025.9 ± 2.1	1.177 ± 0.051
293.15 K, x2 = 0.18	1024.5 ± 2.1	1.17 ± 0.051
293.15 K, x2 = 0.24	1022.7 ± 2.1	1.159 ± 0.051
293.15 K, x2 = 0.35	1019.5 ± 2.1	1.128 ± 0.051
293.15 K, x2 = 0.45	1016.1 ± 2.1	1.093 ± 0.051
293.15 K, x2 = 0.55	1012.8 ± 2.1	1.058 ± 0.051
293.15 K, x2 = 0.65	1009.1 ± 2.2	1.021 ± 0.051
293.15 K, x2 = 0.74	1005.3 ± 2.2	0.9894 ± 0.051
293.15 K, x2 = 0.83	1001.7 ± 2.2	0.9628 ± 0.051
293.15 K, x2 = 0.92	998.2 ± 2.1	0.9384 ± 0.051
298.15 K, x2 = 0	1023.4 ± 2	1.084 ± 0.051
298.15 K, x2 = 0.06	1022.3 ± 2	1.093 ± 0.051
298.15 K, x2 = 0.12	1021.2 ± 2.1	1.098 ± 0.051
298.15 K, x2 = 0.18	1019.5 ± 2.1	1.093 ± 0.051
298.15 K, x2 = 0.24	1018.1 ± 2.1	1.084 ± 0.051
298.15 K, x2 = 0.35	1014.5 ± 2.1	1.059 ± 0.051
298.15 K, x2 = 0.45	1011.2 ± 2.1	1.032 ± 0.051
298.15 K, x2 = 0.55	1007.8 ± 2.1	1.002 ± 0.051
298.15 K, x2 = 0.65	1004.1 ± 2.1	0.9754 ± 0.051
298.15 K, x2 = 0.74	1000.5 ± 2.2	0.9543 ± 0.051
298.15 K, x2 = 0.83	996.4 ± 2.2	0.9353 ± 0.051
298.15 K, x2 = 0.92	993 ± 2.1	0.9189 ± 0.051
303.15 K, x2 = 0	1016.6 ± 2	1.028 ± 0.051
303.15 K, x2 = 0.06	1016.4 ± 2	1.038 ± 0.051
303.15 K, x2 = 0.12	1015.9 ± 2	1.042 ± 0.051
303.15 K, x2 = 0.18	1014.5 ± 2.1	1.037 ± 0.051
303.15 K, x2 = 0.24	1013.1 ± 2.1	1.031 ± 0.051
303.15 K, x2 = 0.35	1009.9 ± 2.1	1.01 ± 0.051
303.15 K, x2 = 0.45	1006.5 ± 2.1	0.9913 ± 0.051
303.15 K, x2 = 0.55	1003.2 ± 2.1	0.9667 ± 0.051
303.15 K, x2 = 0.65	999.3 ± 2.2	0.9452 ± 0.051
303.15 K, x2 = 0.74	995.5 ± 2.2	0.9283 ± 0.051
303.15 K, x2 = 0.83	991.3 ± 2.2	0.9135 ± 0.051
303.15 K, x2 = 0.92	987.6 ± 2.2	0.9007 ± 0.051
308.15 K, x2 = 0	1011 ± 2	0.9921 ± 0.051
308.15 K, x2 = 0.06	1011.01 ± 2	0.9966 ± 0.051
308.15 K, x2 = 0.12	1010.7 ± 2	0.9977 ± 0.051
308.15 K, x2 = 0.18	1010.32 ± 2	0.9959 ± 0.051
308.15 K, x2 = 0.24	1008.6 ± 2.1	0.9894 ± 0.051
308.15 K, x2 = 0.35	1005.6 ± 2.1	0.9741 ± 0.051
308.15 K, x2 = 0.45	1002.1 ± 2.1	0.9577 ± 0.051
308.15 K, x2 = 0.55	998.9 ± 2.1	0.938 ± 0.051
308.15 K, x2 = 0.65	995 ± 2.2	0.9204 ± 0.051
308.15 K, x2 = 0.74	990.8 ± 2.2	0.9067 ± 0.051
308.15 K, x2 = 0.83	986.8 ± 2.2	0.8938 ± 0.051
308.15 K, x2 = 0.92	982.8 ± 2.2	0.8828 ± 0.051
313.15 K, x2 = 0	1005 ± 2	0.9521 ± 0.05
313.15 K, x2 = 0.06	1006.5 ± 2	0.9668 ± 0.051
313.15 K, x2 = 0.12	1007 ± 2	0.9724 ± 0.051
313.15 K, x2 = 0.18	1006.3 ± 2	0.9671 ± 0.051
313.15 K, x2 = 0.24	1005.5 ± 2.1	0.9597 ± 0.051
313.15 K, x2 = 0.35	1002.4 ± 2.1	0.9453 ± 0.051
313.15 K, x2 = 0.45	998.3 ± 2.1	0.9308 ± 0.051
313.15 K, x2 = 0.55	994.9 ± 2.1	0.916 ± 0.051
313.15 K, x2 = 0.65	990.8 ± 2.2	0.9008 ± 0.051
313.15 K, x2 = 0.74	987 ± 2.2	0.8876 ± 0.051
313.15 K, x2 = 0.83	983 ± 2.2	0.8758 ± 0.051
313.15 K, x2 = 0.92	979 ± 2.3	0.8652 ± 0.051

COCOCOCOCOC [2,4,6,8,10-pentaoxaundecane] + COCOCOC
Conditions	mass density [kg/m3]	viscosity [mPa·s]
288.15 K, x2 = 0	1078.8 ± 2	2.207 ± 0.051
288.15 K, x2 = 0.12	1069.8 ± 2.5	1.99 ± 0.062
288.15 K, x2 = 0.24	1061.6 ± 2.5	1.788 ± 0.061
288.15 K, x2 = 0.35	1053.5 ± 2.5	1.608 ± 0.06
288.15 K, x2 = 0.45	1045.4 ± 2.6	1.449 ± 0.058
288.15 K, x2 = 0.55	1037.2 ± 2.6	1.318 ± 0.056
288.15 K, x2 = 0.65	1029 ± 2.6	1.209 ± 0.055
288.15 K, x2 = 0.74	1021 ± 2.7	1.119 ± 0.054
288.15 K, x2 = 0.83	1013.2 ± 2.6	1.043 ± 0.053
288.15 K, x2 = 0.92	1005.8 ± 2.6	0.977 ± 0.052
293.15 K, x2 = 0	1073.3 ± 2	2.015 ± 0.051
293.15 K, x2 = 0.12	1064.6 ± 2.4	1.835 ± 0.058
293.15 K, x2 = 0.24	1056.5 ± 2.4	1.669 ± 0.058
293.15 K, x2 = 0.35	1048.6 ± 2.5	1.518 ± 0.058
293.15 K, x2 = 0.45	1040.6 ± 2.6	1.378 ± 0.057
293.15 K, x2 = 0.55	1032.6 ± 2.6	1.265 ± 0.055
293.15 K, x2 = 0.65	1024.6 ± 2.6	1.166 ± 0.054
293.15 K, x2 = 0.74	1016.7 ± 2.6	1.082 ± 0.053
293.15 K, x2 = 0.83	1009 ± 2.6	1.019 ± 0.052
293.15 K, x2 = 0.92	1001.8 ± 2.6	0.962 ± 0.052
298.15 K, x2 = 0	1068.2 ± 2	1.848 ± 0.051
298.15 K, x2 = 0.12	1059.7 ± 2.4	1.697 ± 0.056
298.15 K, x2 = 0.24	1051.9 ± 2.4	1.557 ± 0.056
298.15 K, x2 = 0.35	1043.9 ± 2.5	1.43 ± 0.056
298.15 K, x2 = 0.45	1036 ± 2.6	1.315 ± 0.055
298.15 K, x2 = 0.55	1028 ± 2.6	1.212 ± 0.054
298.15 K, x2 = 0.65	1020.1 ± 2.6	1.125 ± 0.053
298.15 K, x2 = 0.74	1012.1 ± 2.7	1.05 ± 0.053
298.15 K, x2 = 0.83	1004.4 ± 2.6	0.9918 ± 0.052
298.15 K, x2 = 0.92	996.8 ± 2.6	0.943 ± 0.051
303.15 K, x2 = 0	1063.4 ± 2	1.703 ± 0.051
303.15 K, x2 = 0.12	1055.2 ± 2.4	1.575 ± 0.055
303.15 K, x2 = 0.24	1047.3 ± 2.4	1.452 ± 0.055
303.15 K, x2 = 0.35	1039.4 ± 2.5	1.344 ± 0.054
303.15 K, x2 = 0.45	1031.5 ± 2.6	1.243 ± 0.054
303.15 K, x2 = 0.55	1023.5 ± 2.6	1.153 ± 0.053
303.15 K, x2 = 0.65	1015.4 ± 2.6	1.079 ± 0.053
303.15 K, x2 = 0.74	1007.4 ± 2.7	1.017 ± 0.052
303.15 K, x2 = 0.83	999.4 ± 2.7	0.97 ± 0.051
303.15 K, x2 = 0.92	991.7 ± 2.7	0.9255 ± 0.051
308.15 K, x2 = 0	1059.1 ± 2	1.576 ± 0.051
308.15 K, x2 = 0.12	1050.9 ± 2.4	1.466 ± 0.054
308.15 K, x2 = 0.24	1043 ± 2.4	1.361 ± 0.054
308.15 K, x2 = 0.35	1035 ± 2.5	1.264 ± 0.054
308.15 K, x2 = 0.45	1027.2 ± 2.6	1.175 ± 0.053
308.15 K, x2 = 0.55	1019.2 ± 2.6	1.099 ± 0.052
308.15 K, x2 = 0.65	1011.3 ± 2.6	1.036 ± 0.052
308.15 K, x2 = 0.74	1003.2 ± 2.7	0.9843 ± 0.051
308.15 K, x2 = 0.83	995 ± 2.7	0.943 ± 0.051
308.15 K, x2 = 0.92	986.9 ± 2.8	0.9043 ± 0.051
313.15 K, x2 = 0	1055.2 ± 2	1.464 ± 0.051
313.15 K, x2 = 0.12	1047.2 ± 2.4	1.371 ± 0.053
313.15 K, x2 = 0.24	1039.4 ± 2.4	1.278 ± 0.053
313.15 K, x2 = 0.35	1031.5 ± 2.5	1.194 ± 0.053
313.15 K, x2 = 0.45	1023.7 ± 2.5	1.117 ± 0.053
313.15 K, x2 = 0.55	1015.8 ± 2.6	1.05 ± 0.052
313.15 K, x2 = 0.65	1007.9 ± 2.6	0.9955 ± 0.051
313.15 K, x2 = 0.74	999.8 ± 2.7	0.9504 ± 0.051
313.15 K, x2 = 0.83	991.3 ± 2.8	0.916 ± 0.051
313.15 K, x2 = 0.92	982.8 ± 2.8	0.8847 ± 0.051
